# Assay results as given in US10336761B2, “TGFβ receptor antagonist” (BRISTOL-MYERS SQUIBB COMPANY, priority 2015, dated 2019).
# pIC50: −log10 of the molar value.
# Molecular target: HIS-TGFβR1 T204D (Homo sapiens (Human), UniProt P36897, T204D)
# Assay: HTRF probe-displacement assay, HIS-TGFβR1 T204D
# Type: binding
# Conditions: 1 hour at room temperature
# Sequence of HIS-TGFβR1 T204D (P36897 34-503 T204D): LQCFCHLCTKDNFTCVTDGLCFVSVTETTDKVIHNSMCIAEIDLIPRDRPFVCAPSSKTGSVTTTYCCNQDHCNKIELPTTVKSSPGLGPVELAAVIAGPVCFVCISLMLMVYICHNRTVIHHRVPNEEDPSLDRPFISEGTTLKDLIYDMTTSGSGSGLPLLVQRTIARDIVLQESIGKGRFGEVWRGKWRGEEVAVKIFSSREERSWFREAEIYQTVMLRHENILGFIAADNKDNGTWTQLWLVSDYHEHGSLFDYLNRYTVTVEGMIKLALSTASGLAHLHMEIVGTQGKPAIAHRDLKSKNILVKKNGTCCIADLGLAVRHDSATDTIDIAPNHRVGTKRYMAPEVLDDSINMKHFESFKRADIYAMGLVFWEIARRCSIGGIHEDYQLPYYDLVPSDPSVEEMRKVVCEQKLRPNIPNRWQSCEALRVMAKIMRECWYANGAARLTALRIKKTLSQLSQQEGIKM
row,Structure (SMILES),pIC50
1,"O=C(N[C@H]1CCC[C@@H]1O)c1cnccc1Nc1nc(-c2cccc(C(F)F)n2)nn2cccc12 [Example 199, 4-({2-[6-(difluoromethyl)pyridin-2-yl]pyrrolo[2,1-f][1,2,4]triazin-4-yl}amino)-N-[(1S,2S)-2-hydroxycyclopentyl]pyridine-3-carboxamide]",7.21
2,"Fc1cnccc1Nc1nc(-c2cccc(C(F)F)n2)nn2cccc12 [Example 78, N-{2-[6-(difluoromethyl)pyridin-2-yl]pyrrolo[2,1-f][1,2,4]triazin-4-yl}-3-fluoropyridin-4-amine]",9.04
3,"O=C(NCc1ccn[nH]1)c1cnccc1Nc1nc(-c2cccc(C(F)F)n2)nn2cccc12 [Example 197, 4-({2-[6-(difluoromethyl)pyridin-2-yl]pyrrolo[2,1-f][1,2,4]triazin-4-yl}amino)-N-(1H-pyrazol-5-ylmethyl)pyridine-3-carboxamide]",7.38
4,"COc1cccc(-c2nc(Nc3ccncc3C(F)F)c3cccn3n2)n1 [Example 15, 3-(difluoromethyl)-N-[2-(6-methoxypyridin-2-yl)pyrrolo[2,1-f][1,2,4]triazin-4-yl]pyridin-4-amine]",8.00
5,"Cc1nc(-c2nc(Nc3ccnc(NC(=O)C4CC4)c3)c3cccn3n2)ccc1F [Example 345, N-(4-{[2-(5-fluoro-6-methylpyridin-2-yl)pyrrolo[2,1-f][1,2,4]triazin-4-yl]amino}pyridin-2-yl)cyclopropanecarboxamide]",8.85
6,"Cc1cccc(-c2nc(Nc3ccncc3F)c3c(CN4CCC(F)(F)CC4)ccn3n2)n1 [Example 76, N-{5-[(4,4-difluoropiperidin-1-yl)methyl]-2-(6-methylpyridin-2-yl)pyrrolo[2,1-f][1,2,4]triazin-4-yl}-3-fluoropyridin-4-amine]",9.60
7,"CN1CCC(N(C)Cc2ccn3nc(-c4ccccn4)nc(Nc4ccncc4F)c23)CC1 [Example 279, 3-fluoro-N-(5-{[methyl(1-methylpiperidin-4-yl)amino]methyl}-2-(pyridin-2-yl)pyrrolo[2,1-f][1,2,4]triazin-4-yl)pyridin-4-amine]",7.92
8,"OC[C@@H](O)CNCc1ccn2nc(-c3ccccn3)nc(Nc3ccncc3F)c12 [Example 287, (2S)-3-[({4-[(3-fluoropyridin-4-yl)amino]-2-(pyridin-2-yl)pyrrolo[2,1-f][1,2,4]triazin-5-yl}methyl)amino]propane-1,2-diol]",9.08
9,"CC(C)NC(=O)c1cnccc1Nc1nc(-c2cccc(C(F)F)n2)nn2cccc12 [Example 194, 4-({2-[6-(difluoromethyl)pyridin-2-yl]pyrrolo[2,1-f][1,2,4]triazin-4-yl}amino)-N-(propan-2-yl)pyridine-3-carboxamide]",6.96
10,"O=C(c1cnccc1Nc1nc(-c2cccc(C(F)F)n2)nn2cccc12)N1CCC(F)(F)CC1 [Example 203, N-{2-[6-(difluoromethyl)pyridin-2-yl]pyrrolo[2,1-f][1,2,4]triazin-4-yl}-3-(4,4-difluoropiperidine-1-carbonyl)pyridin-4-amine]",6.12
11,"COc1cccc(-c2nc(Nc3ccnc(N4CCOCC4)c3)c3cccn3n2)n1 [Example 99, N-[2-(6-methoxypyridin-2-yl)pyrrolo[2,1-f][1,2,4]triazin-4-yl]-2-(morpholin-4-yl)pyridin-4-amine]",5.54
12,"CCCNC(=O)c1cnccc1Nc1nc(-c2cccc(C(F)F)n2)nn2cccc12 [Example 184, 4-({2-[6-(difluoromethyl)pyridin-2-yl]pyrrolo[2,1-f][1,2,4]triazin-4-yl}amino)-N-propylpyridine-3-carboxamide]",7.85
13,"O=C(NCCN1CCNCC1)c1cnccc1Nc1nc(-c2ccccn2)nn2cccc12 [Example 151, N-[2-(piperazin-1-yl)ethyl]-4-{[2-(pyridin-2-yl)pyrrolo[2,1-f][1,2,4]triazin-4-yl]amino}pyridine-3-carboxamide]",7.31
14,"COc1cccc(-c2nc(Nc3ccncc3F)c3c(C(O)CN4CCC(N(C)C)CC4)ccn3n2)n1 (stereo not shown) [Example 30, 2-[4-(dimethylamino)piperidin-1-yl]-1-{4-[(3-fluoropyridin-4-yl)amino]-2-(6-methoxypyridin-2-yl)pyrrolo[2,1-f][1,2,4]triazin-5-yl}ethan-1-ol]",6.59
15,"CC(=O)N1CCN(CC(=O)Nc2cc(Nc3nc(-c4cccc(C(F)(F)F)n4)nn4cccc34)ccn2)CC1 [Example 320, 2-(4-acetylpiperazin-1-yl)-N-[4-({2-[6-(trifluoromethyl)pyridin-2-yl]pyrrolo[2,1-f][1,2,4]triazin-4-yl}amino)pyridin-2-yl]acetamide]",9.07
16,FC(F)(F)c1cccc(-c2nc(Nc3ccncc3OCCCN3CCOCC3)c3cccn3n2)n1 [Example 75],6.68
17,"O=C(NCCCN1CCCC1=O)c1cnccc1Nc1nc(-c2ccccn2)nn2cccc12 [Example 149, N-[3-(2-oxopyrrolidin-1-yl)propyl]-4-{[2-(pyridin-2-yl)pyrrolo[2,1-f][1,2,4]triazin-4-yl]amino}pyridine-3-carboxamide]",7.31
18,"COc1cccc(-c2nc(Nc3ccncc3F)c3cc(/C=C/CCO)cn3n2)n1 [Example 211, (3E)-4-{4-[(3-fluoropyridin-4-yl)amino]-2-(6-methoxypyridin-2-yl)pyrrolo[2,1-f][1,2,4]triazin-6-yl}but-3-en-1-ol]",7.52
19,"C=Cc1cc2c(Nc3ccncc3F)nc(-c3cccc(OC)n3)nn2c1 [Example 210, N-[6-ethenyl-2-(6-methoxypyridin-2-yl)pyrrolo[2,1-f][1,2,4]triazin-4-yl]-3-fluoropyridin-4-amine]",7.52
20,"O=C(NCCOCCO)c1cnccc1Nc1nc(-c2cccc(C(F)F)n2)nn2cccc12 [Example 174, 4-({2-[6-(difluoromethyl)pyridin-2-yl]pyrrolo[2,1-f][1,2,4]triazin-4-yl}amino)-N-[2-(2-hydroxyethoxy)ethyl]pyridine-3-carboxamide]",7.64
21,"Fc1cnccc1Nc1nc(-c2ccccn2)nn2ccc(CNC3CCCNC3)c12 (stereo not shown) [Example 267, 3-fluoro-N-(5-{[(piperidin-3-yl)amino]methyl}-2-(pyridin-2-yl)pyrrolo[2,1-f][1,2,4]triazin-4-yl)pyridin-4-amine]",8.62
22,"COc1cccc(-c2nc(Nc3ccncc3F)c3c(C(O)CN4CCC(F)(F)CC4)ccn3n2)n1 (stereo not shown) [Example 129, 2-(4,4-difluoropiperidin-1-yl)-1-{4-[(3-fluoropyridin-4-yl)amino]-2-(6-methoxypyridin-2-yl)pyrrolo[2,1-f][1,2,4]triazin-5-yl}ethan-1-ol]",7.42
23,"Fc1cc(Nc2nc(-c3cccc(C(F)(F)F)n3)nn3cccc23)ccn1 [Example 256, 2-fluoro-N-{2-[6-(trifluoromethyl)pyridin-2-yl]pyrrolo[2,1-f][1,2,4]triazin-4-yl}pyridin-4-amine]",6.60
24,"COc1cccc(-c2nc(Nc3ccnc(NCCN4CCOCC4)c3)c3c(C)ccn3n2)n1 [Example 137, 4-N-[2-(6-methoxypyridin-2-yl)-5-methylpyrrolo[2,1-f][1,2,4]triazin-4-yl]-2-N-[2-(morpholin-4-yl)ethyl]pyridine-2,4-diamine]",6.92
25,"Fc1cnccc1Nc1nc(-c2cc(Cl)ccn2)nn2cccc12 [Example 63, N-[2-(4-chloropyridin-2-yl)pyrrolo[2,1-f][1,2,4]triazin-4-yl]-3-fluoropyridin-4-amine]",6.82
